Assay results as given in ChEMBL document CHEMBL1122788, “Quantitative relationships between alpha-adrenergic activity and binding affinity of alpha-adrenoceptor agonists and antagonists” (J Med Chem, 1984).

What was measured:
[1] = biological target: T1, Adrenergic receptor alpha-2 (Rattus norvegicus, UniProt P22086+P19328+P22909); experiment: Inhibition of specific [3H]clonidine binding (0.4 nM) to rat brain membranes alpha-2 adrenergic receptor; type: cell membranes, Membrane
T1 sequence (P22086 whole entry): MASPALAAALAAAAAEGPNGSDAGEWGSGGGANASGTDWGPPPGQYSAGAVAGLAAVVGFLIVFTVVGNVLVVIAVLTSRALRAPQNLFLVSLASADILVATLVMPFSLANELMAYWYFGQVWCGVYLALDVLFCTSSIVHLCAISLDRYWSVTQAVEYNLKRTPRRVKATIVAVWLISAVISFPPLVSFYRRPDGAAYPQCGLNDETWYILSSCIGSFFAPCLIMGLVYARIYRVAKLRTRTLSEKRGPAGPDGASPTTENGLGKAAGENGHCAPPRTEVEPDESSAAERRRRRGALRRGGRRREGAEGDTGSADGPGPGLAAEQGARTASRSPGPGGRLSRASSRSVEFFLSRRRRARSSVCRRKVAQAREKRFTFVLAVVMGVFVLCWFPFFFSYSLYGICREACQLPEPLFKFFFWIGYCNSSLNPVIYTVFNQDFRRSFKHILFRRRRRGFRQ
T1 sequence (P19328 whole entry): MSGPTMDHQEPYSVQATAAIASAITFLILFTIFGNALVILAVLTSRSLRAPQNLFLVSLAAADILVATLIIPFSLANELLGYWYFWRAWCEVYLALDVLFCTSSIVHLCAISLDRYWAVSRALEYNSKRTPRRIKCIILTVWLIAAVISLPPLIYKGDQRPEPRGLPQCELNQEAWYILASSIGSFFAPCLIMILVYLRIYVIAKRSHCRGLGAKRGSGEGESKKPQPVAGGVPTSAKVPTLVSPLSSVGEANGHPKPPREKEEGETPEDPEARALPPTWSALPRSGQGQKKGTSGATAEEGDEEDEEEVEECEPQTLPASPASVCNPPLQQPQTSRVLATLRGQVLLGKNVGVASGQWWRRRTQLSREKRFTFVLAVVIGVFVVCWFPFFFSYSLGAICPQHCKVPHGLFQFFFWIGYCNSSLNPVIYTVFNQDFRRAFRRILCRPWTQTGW
T1 sequence (P22909 whole entry): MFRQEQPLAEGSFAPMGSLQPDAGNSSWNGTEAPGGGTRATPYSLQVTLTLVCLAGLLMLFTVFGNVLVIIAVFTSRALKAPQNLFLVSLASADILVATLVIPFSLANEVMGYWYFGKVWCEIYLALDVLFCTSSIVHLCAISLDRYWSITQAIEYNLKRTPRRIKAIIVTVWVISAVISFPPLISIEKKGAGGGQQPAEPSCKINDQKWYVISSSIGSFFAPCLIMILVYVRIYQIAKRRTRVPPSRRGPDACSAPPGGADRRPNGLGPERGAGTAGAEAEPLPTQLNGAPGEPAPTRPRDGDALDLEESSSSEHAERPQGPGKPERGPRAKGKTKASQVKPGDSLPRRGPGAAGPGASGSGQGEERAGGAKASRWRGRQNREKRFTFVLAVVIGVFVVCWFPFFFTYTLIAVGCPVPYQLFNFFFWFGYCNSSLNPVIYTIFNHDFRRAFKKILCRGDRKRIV

[2] = biological target: T2, Adrenergic receptor alpha-1 (Homo sapiens, UniProt P35348+P25100+P35368); experiment: In vitro antagonist activity against (-)-phenylephrine or (-)-norepinephrine-induced alpha1-adrenoceptor-mediated vasoconstriction of rabbit isolated pulmonary artery.; type: functional, Oryctolagus cuniculus; details: target entry is the homologue from another species
T2 sequence (P35348 whole entry): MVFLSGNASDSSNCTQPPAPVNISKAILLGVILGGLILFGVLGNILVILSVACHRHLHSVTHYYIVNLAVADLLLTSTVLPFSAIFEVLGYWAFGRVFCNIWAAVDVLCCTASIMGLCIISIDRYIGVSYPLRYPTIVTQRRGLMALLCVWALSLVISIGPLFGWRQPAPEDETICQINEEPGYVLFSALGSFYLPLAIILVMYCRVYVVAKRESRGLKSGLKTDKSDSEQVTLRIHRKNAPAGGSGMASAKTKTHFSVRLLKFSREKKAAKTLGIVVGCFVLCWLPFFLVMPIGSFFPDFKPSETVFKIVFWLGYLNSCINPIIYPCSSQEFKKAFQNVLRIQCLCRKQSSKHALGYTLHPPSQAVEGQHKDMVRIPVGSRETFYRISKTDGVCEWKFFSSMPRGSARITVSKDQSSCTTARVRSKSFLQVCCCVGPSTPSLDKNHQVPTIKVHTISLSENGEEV
T2 sequence (P25100 whole entry): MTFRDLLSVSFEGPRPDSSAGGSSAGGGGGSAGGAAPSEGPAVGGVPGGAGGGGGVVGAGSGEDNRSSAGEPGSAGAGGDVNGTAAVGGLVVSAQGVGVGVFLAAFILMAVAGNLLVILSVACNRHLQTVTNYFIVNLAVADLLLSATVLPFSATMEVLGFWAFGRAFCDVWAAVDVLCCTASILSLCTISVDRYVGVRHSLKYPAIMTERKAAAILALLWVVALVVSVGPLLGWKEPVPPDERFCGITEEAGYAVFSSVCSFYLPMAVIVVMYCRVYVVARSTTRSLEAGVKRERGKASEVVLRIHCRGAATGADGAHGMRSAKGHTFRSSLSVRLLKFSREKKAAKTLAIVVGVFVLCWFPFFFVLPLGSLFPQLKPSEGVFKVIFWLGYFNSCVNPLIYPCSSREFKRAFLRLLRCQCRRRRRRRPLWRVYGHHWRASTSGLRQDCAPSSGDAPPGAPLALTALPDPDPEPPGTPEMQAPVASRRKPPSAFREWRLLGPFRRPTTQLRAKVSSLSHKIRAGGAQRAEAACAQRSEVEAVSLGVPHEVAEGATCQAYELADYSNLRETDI
T2 sequence (P35368 whole entry): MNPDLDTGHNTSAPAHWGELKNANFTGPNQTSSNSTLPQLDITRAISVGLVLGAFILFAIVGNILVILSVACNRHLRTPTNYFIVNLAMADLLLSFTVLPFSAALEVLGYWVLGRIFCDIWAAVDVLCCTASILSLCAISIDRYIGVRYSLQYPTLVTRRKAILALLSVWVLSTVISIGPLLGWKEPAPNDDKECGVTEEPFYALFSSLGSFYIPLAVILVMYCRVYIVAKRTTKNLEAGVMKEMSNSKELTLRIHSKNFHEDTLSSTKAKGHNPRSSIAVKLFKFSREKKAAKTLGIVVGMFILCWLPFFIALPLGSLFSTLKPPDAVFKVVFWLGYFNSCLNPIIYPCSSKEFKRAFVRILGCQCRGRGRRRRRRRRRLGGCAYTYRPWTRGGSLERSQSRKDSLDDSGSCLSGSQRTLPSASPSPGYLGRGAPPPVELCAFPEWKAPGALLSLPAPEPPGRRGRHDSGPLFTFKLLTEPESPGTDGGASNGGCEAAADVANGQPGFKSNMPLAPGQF

[3] = biological target: T1, Adrenergic receptor alpha-2; experiment: Antagonist activity against B-HT 933-induced alpha-2-adrenoceptor-mediated vasoconstriction in pithed normotensive rats; type: functional

SMILES	IC50 [1] [nM]	pA2 [2]	pA2 [3]
C=CCN1Cc2ccccc2-c2ccccc2C1 [AZAPETINE]	1300	6.96	4.88
CN1C[C@H](C(=O)N[C@]2(C)O[C@@]3(O)[C@@H]4CCCN4C(=O)[C@H](Cc4ccccc4)N3C2=O)C[C@@H]2c3cccc4[nH]cc(c34)C[C@H]21 [DIHYDROERGOTAMINE]	3.7	7.55	7.25
